{"source": "ChEMBL document CHEMBL5518171", "about": "“Curcumin hybrid molecules for the treatment of Alzheimer's disease: Structure and pharmacological activities” (Eur J Med Chem, 2024)", "key": {"[1]": {"assay": "Neuroprotective activity against human MC65 cells assessed as increase in cell viability incubated for 72 hrs in absence of tetracycline by MTT assay", "assay_type": "functional, cell-based", "settings": "MC65, 72 h"}, "[2]": {"test_system": "SH-SY5Y", "assay": "Antioxidant activity in human SH-SY5Y cells assessed as increase in intracellular GSH level at 10 uM incubated for 24 hrs by […] staining based fluorescence analysis", "assay_type": "functional"}, "[3]": {"assay": "Antioxidant activity assessed as DPPH radical scavenging activity at 80 uM incubated for 1 hr by DPPH assay relative to control", "assay_type": "functional"}, "[4]": {"assay": "Antioxidant activity assessed as DPPH radical scavenging activity st 80 uM incubated for 1 hr by DPPH assay", "assay_type": "functional"}, "[5]": {"assay": "Antioxidant activity assessed as DPPH radical scavenging activity measured after 30 mins by UV-visible spectrophotometric analysis", "assay_type": "functional"}, "[6]": {"molecular_target": "Acetylcholinesterase (Electrophorus electricus, UniProt O42275)", "sequence (O42275 whole entry)": "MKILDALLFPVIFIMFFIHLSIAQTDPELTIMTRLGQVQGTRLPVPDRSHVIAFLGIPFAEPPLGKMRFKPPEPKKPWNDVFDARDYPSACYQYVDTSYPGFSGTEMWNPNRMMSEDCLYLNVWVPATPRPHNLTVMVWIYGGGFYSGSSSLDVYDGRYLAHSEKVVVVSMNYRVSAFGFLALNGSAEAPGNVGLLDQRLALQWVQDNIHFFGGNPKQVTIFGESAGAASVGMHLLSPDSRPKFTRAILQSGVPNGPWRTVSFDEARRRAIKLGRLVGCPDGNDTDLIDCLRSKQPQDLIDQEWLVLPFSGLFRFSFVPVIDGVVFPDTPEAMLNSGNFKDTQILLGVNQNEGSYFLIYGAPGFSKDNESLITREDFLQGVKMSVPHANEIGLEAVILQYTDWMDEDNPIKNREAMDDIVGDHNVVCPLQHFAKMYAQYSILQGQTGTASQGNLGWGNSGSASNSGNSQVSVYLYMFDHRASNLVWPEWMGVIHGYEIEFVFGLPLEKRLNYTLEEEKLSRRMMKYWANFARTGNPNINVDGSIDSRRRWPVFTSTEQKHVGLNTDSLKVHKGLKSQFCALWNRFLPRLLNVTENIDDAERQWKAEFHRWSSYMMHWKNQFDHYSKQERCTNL", "description": "Inhibition of Electric eel AChE using acetylthiocholine iodide as substrate incubated for 15 mins by Ellman's method"}, "[7]": {"molecular_target": "Cholinesterase (Equus caballus, UniProt P81908)", "sequence (P81908 whole entry)": "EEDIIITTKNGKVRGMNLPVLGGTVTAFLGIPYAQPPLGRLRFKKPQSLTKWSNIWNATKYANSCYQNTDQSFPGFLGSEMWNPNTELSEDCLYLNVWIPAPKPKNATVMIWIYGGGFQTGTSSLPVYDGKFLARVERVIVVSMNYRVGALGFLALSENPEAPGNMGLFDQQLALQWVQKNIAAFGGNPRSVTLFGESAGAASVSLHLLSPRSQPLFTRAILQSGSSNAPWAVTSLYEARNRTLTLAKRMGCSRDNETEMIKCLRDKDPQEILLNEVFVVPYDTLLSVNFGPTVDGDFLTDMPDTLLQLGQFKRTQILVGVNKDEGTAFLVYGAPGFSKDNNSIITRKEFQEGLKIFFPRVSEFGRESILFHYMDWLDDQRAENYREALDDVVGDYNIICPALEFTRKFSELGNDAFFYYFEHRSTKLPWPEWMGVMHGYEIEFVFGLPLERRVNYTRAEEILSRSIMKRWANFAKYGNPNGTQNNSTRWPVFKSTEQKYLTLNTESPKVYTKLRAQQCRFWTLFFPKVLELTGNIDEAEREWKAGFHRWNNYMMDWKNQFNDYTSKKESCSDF", "assay": "Inhibition of equine BChE using BTCh as substrate incubated for 5 mins by Ellmans method"}, "[8]": {"test_system": "N2a", "assay": "Antiproliferative activity against mouse Neuro2a cells assessed as reduction in cell viability incubated for 72 hrs by MTT assay", "assay_type": "functional, cell-based"}, "[9]": {"molecular_target": "T1, Amine oxidase [flavin-containing] A (Homo sapiens, UniProt P21397)", "T1 sequence (P21397 whole entry)": "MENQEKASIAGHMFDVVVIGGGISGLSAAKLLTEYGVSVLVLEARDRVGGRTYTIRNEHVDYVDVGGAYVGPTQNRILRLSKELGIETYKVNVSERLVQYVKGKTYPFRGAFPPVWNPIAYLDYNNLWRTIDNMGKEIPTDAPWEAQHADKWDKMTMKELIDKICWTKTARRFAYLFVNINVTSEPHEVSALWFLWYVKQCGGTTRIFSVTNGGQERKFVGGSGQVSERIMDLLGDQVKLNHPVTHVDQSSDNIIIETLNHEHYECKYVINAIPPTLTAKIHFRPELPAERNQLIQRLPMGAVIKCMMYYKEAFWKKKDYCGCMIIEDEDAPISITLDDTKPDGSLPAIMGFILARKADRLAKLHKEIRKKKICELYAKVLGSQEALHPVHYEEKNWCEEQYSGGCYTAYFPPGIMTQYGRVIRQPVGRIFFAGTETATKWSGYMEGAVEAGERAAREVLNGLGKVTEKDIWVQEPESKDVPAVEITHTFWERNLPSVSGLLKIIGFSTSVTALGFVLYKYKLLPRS", "assay": "Inhibition of human MAO-A using p-tyramine as substrate at 100 uM incubated for 15 mins by Amplex red and horseradish peroxidase based fluorescence assay relative to control", "settings": "0.25 h"}, "[10]": {"molecular_target": "Cholinesterase (Equus caballus) (UniProt P81908)", "sequence (P81908 whole entry)": "as the sequence (P81908 whole entry) above", "assay": "Inhibition of equine BChE at 100 uM by Ellman's method relative to control"}, "[11]": {"molecular_target": "T2, Amine oxidase [flavin-containing] B (Homo sapiens, UniProt P27338)", "T2 sequence (P27338 whole entry)": "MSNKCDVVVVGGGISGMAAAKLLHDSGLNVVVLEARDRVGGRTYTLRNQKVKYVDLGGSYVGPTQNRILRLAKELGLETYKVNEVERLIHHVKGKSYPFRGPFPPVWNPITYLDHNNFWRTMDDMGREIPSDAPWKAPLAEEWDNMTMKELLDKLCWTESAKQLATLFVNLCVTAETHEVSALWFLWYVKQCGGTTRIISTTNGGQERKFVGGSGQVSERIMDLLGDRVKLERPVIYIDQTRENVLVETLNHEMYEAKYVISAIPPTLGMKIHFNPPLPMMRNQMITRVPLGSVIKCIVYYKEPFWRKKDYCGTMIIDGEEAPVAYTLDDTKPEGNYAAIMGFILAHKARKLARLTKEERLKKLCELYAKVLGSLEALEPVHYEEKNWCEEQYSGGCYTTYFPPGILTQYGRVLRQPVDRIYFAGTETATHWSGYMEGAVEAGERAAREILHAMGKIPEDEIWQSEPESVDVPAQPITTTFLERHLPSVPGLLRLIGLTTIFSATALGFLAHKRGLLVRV", "assay": "Inhibition of human MAO-B using p-tyramine as substrate at 100 uM incubated for 15 mins by Amplex red and horseradish peroxidase based fluorescence assay", "settings": "0.25 h"}, "[12]": {"assay": "Antioxidant activity assessed as ROS scavenging activity", "assay_type": "functional"}, "[13]": {"assay": "Antioxidant activity assessed as DPPH radical scavenging activity by spectrophotometric analysis", "assay_type": "functional"}}}
{"smiles": "COc1ccc2[nH]cc(CCNC(=O)CC(=O)/C=C/c3ccc(O)cc3)c2c1", "values": [{"measurement": "EC50", "setting": "[1]", "result": 23.1, "unit": "nM"}]}
{"smiles": "COc1cc(/C=C/C(=O)NN=C2CCN(Cc3ccccc3)CC2)ccc1O", "values": [{"measurement": "Activity", "setting": "[2]", "result": 34, "unit": "%"}, {"measurement": "Activity", "setting": "[3]", "result": 53.4, "unit": "%"}, {"measurement": "Activity", "setting": "[4]", "result": 53.4, "unit": "%"}]}
{"smiles": "COc1ccc2[nH]cc(CCNC(=O)CC(=O)/C=C/c3ccc(O)c(OC)c3)c2c1", "values": [{"measurement": "EC50", "setting": "[1]", "result": 134, "unit": "nM"}]}
{"smiles": "CCCCN1C(=O)/C(=C(O)/C=C/c2cc(OC)c(OC)c(OC)c2)C(C(=O)OC)=C1C", "values": [{"measurement": "Activity", "setting": "[5]", "result": 10.8, "unit": "%"}]}
{"smiles": "COc1cc(/C=C/C(=O)OCCCCCN(C)Cc2cccc(OC(=O)N(C)C)c2)ccc1O", "values": [{"measurement": "IC50", "setting": "[6]", "result": 19.7, "unit": "nM"}, {"measurement": "IC50", "setting": "[7]", "result": 590, "unit": "nM"}]}
{"smiles": "COc1ccc(/C=C/C(=O)CCCCN2CC[C@@]34C=C[C@H](O)C[C@@H]3Oc3c(OC)ccc(c34)C2)cc1", "values": [{"measurement": "IC50", "setting": "[8]", "result": 50000, "unit": "nM"}]}
{"smiles": "O=C(/C=C/c1cc(O)c(O)cc1O)CC(=O)/C=C/c1cc2ccc(O)c(O)c2oc1=O", "values": [{"measurement": "inhibition at 100 µM", "setting": "[9]", "result": 60.9, "unit": "%"}, {"measurement": "inhibition", "setting": "[10]", "result": 43.3, "unit": "%"}, {"measurement": "inhibition at 100 µM", "setting": "[11]", "result": 45.8, "unit": "%"}]}
{"smiles": "CCCCN1C(=O)/C(=C(O)/C=C/c2cc(OC)c(OC)c(OC)c2)C(C(=O)OCC)=C1C", "values": [{"measurement": "Activity", "setting": "[12]", "result": 61, "unit": "%"}]}
{"smiles": "CCCCN1C(=O)/C(=C(O)/C=C/c2ccc(O)c(OC)c2)C(C(=O)OC)=C1C", "values": [{"measurement": "Activity", "setting": "[13]", "result": 8.87, "unit": "%"}]}
{"smiles": "O=C(/C=C/c1ccc(O)c(O)c1)NN=C1CCN(Cc2ccccc2)CC1", "values": [{"measurement": "Activity", "setting": "[2]", "result": 33, "unit": "%"}, {"measurement": "Activity", "setting": "[3]", "result": 45, "unit": "%"}, {"measurement": "Activity", "setting": "[4]", "result": 45, "unit": "%"}]}
